Ends that are not written are not given here.
Assays:
NPR-3 = target: T1, NPR-3 (Caenorhabditis elegans, UniProt P90745); experiment: IP accumulation assay, chimeric GαΔ6qi4myr, NPR-3; type: cell-based, C. elegans; details: 1 h, HBSS + 20 mM LiCl, HEK293 receptor + GαΔ6qi4myr, HTRF IP-One
T1 construct: expressed in transfected cells; host or cells: HEK293
T1 sequence (P90745 1-376): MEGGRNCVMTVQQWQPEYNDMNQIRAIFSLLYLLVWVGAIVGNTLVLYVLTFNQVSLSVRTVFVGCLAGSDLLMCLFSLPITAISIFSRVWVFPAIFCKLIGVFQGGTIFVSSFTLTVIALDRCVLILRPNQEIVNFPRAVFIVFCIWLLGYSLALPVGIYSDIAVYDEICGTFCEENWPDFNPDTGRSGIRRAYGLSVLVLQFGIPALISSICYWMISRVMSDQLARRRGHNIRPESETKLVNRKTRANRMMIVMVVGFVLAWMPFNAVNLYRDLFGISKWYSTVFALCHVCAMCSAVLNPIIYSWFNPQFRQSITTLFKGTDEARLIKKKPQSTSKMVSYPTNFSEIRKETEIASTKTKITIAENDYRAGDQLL
Description: (§1) For measuring IP accumulation, HEK293 cells grown to 70–80% confluency in 6-well plates were transiently co-transfected using Metafectene Pro (2.5 μl/μg DNA; Biontex) with plasmids containing receptor and/or mock (empty pcDNA3.1) (for endogenous Gq-coupling) using 4 μg total DNA in a ratio of 3:1 following the manufacturer’s instructions. For testing Gα16- and GαΔ6qi4myr-coupling, plasmids encoding the corresponding Gα protein were co-transfected instead of mock. Gα16 is naturally promiscuous and stimulates the phospholipase C (PLC) pathway leading to IP production, while the exchange of the C-terminal four amino acids of Gαq for the corresponding residues of Gαi1 in the chimeric GαΔ6qi4myr confers the ability to couple to Gi/o protein-preferring receptors but still stimulate PLC, thus specifically redirecting downstream cellular signaling. 16 h post transfection, the cells were seeded into white 384-well plates at a density of 20,000 cells/well. Media was removed 24 h later and the cells were incubated with the indicated concentration of peptides for 1 h in HBSS + 20 mM LiCl. IP accumulation was measured with the HTRF-based IP-One Gq kit (Cisbio) on a microplate reader (Tecan Spark).
(§2) For in vitro activation, data is presented as mean ± SEM of at least three independent experiments conducted in technical triplicate. […] For the C. elegans NPRs, we considered the strongest response elicited by any of the peptides downstream of a particular receptor as the receptor’s maximal signal. This may or may not be the biological maximum that can be reached by the ‘true’ endogenous agonist. For the human receptors, the response to the established endogenous agonist reflected the maximal signal.

NPR-4b = target: T2, NPR-4b (Caenorhabditis elegans, UniProt A0A078BTK0); experiment: IP accumulation assay, chimeric GαΔ6qi4myr, NPR-4b; type: cell-based, C. elegans; details: 1 h, HBSS + 20 mM LiCl, HEK293 receptor + GαΔ6qi4myr, HTRF IP-One
T2 sequence (A0A078BTK0 1-376): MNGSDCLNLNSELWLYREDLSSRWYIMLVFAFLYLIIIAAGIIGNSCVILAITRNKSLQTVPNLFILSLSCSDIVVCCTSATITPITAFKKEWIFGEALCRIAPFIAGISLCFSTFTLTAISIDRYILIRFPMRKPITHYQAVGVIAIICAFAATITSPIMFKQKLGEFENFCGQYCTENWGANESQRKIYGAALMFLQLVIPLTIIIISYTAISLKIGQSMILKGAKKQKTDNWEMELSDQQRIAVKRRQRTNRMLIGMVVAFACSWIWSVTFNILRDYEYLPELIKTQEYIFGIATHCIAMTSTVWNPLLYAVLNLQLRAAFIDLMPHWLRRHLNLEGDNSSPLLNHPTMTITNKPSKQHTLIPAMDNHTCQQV
Description: as §1, §2

PrRPR = target: T3, PrRPR (Homo sapiens, UniProt P49683); experiment: IP accumulation assay, endogenous Gαq coupling, PrRPR; type: cell-based; details: transiently transfected HEK293 cells, mean of at least three independent experiments
T3 construct: expressed in transfected cells; host or cells: HEK293, transient
T3 sequence (P49683 1-370): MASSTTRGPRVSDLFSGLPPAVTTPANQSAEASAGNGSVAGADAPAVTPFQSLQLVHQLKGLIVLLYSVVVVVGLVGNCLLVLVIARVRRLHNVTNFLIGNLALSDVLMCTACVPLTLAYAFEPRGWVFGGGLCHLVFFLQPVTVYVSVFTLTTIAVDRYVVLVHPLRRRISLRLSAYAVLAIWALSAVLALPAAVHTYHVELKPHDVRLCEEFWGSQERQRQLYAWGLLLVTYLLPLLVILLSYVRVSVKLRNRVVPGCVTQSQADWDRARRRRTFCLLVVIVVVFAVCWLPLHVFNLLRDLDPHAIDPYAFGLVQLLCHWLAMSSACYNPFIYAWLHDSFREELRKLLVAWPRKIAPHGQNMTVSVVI
Description: as §1, §2

[1] = Solubility of crude peptides in RP-HPLC purification solvents; type: physicochemical; details: for solubility of crude peptide: H2O + 0.1% TFA / acetonitrile + 0.08% TFA (RP-HPLC purification conditions); for solubility of crude peptide at basic pH: 10 mM (NH4)2CO3, pH 8.5, used for purification
Description: C-terminally amidated peptides were synthesized in 15 μmol scale by solid-phase peptide synthesis following the Fmoc/tert-butyl strategy (reviewed in [18]) on Rink amide resin using an automated Syro II peptide synthesizer (MultiSynTech). Automated coupling reactions were performed as double couplings using 8 eq Nα-protected amino acid, activated in situ with equimolar amounts of Oxyma and […] in dimethylformamide (DMF) for 30 min. Automated Fmoc deprotection was carried out with 40% (v/v) piperidine in DMF for 3 min and 20% (v/v) piperidine in DMF for 10 min. Reactive side chains of amino acids were protected by tert-butyl (tBu for Tyr, Ser, Asp, Glu, Thr), trityl (Trt for Asn, Gln, His), 2,2,4,6,7-pentamethyldihydrobenzofuran-5-sulfonyl (Pbf for Arg) and tert-butyloxycarbonyl (Boc for Lys). Peptides were cleaved off the resin using trifluoroacetic acid (TFA)/H2O/triisopropylsilane (90/5/5, v/v/v) for 2.5 h at room temperature and precipitated in ice cold diethyl ether. All peptides were purified to > 95% purity by RP-HPLC (Shimadzu) using a Phenomenex Jupiter 10 μm Proteo 90 Å (C12) column. For most peptides, linear gradients of H2O + 0.1% trifluoroacetic acid (TFA) (eluent A) and acetonitrile (ACN) + 0.08% TFA (eluent B) were applied at a flow rate of 10 ml/minute. […] FLP-27, FLP-33, and FLP-34 were solubilized by ultrasonication at 50 °C for 10 min and subsequently purified under standard solvent conditions used pre-heated HPLC systems. […] Peptide identity was verified by matrix-assisted laser desorption/time of flight (MALDI-ToF; Ultraflex III MALDI-ToF/ToF, Bruker Daltonics) mass spectrometry, and peptide purity was evaluated with analytical RP-HPLC.

[2] = 0.1 µM peptide (Table S8), mean of >=3 independent experiments
[3] = 10 µM peptide, mean of >=3 independent experiments (Tables S5 and S8)
[4] = 0.1 nM peptide (Table S5), mean of >=3 independent experiments

Row | Substance | IP accumulation with GαΔ6qi4myr, NPR-3 (NPR-3; [2]) | IP accumulation with GαΔ6qi4myr, NPR-3 (NPR-3; [3]) | IP accumulation with GαΔ6qi4myr, NPR-4b (NPR-4b; [2]) | IP accumulation with GαΔ6qi4myr, NPR-4b (NPR-4b; [3]) | IP accumulation, x-fold of basal (mean), PrRPR# (PrRPR; 0.1 µM peptide) | IP accumulation, x-fold of basal (mean), PrRPR# (PrRPR; 10 µM peptide) | IP assay endog. Gαq + GαΔ6qi4myr, NPR-3 (NPR-3; [4]) | IP assay endog. Gαq + GαΔ6qi4myr, NPR-4b (NPR-4b; [4]) | solubility of crude peptide [1] | solubility of crude peptide at basic pH [1]
1 | AGSDPNFLRF-NH2 [FLP-1-2, C. elegans FMRFamide-like peptide, C-terminally amidated, synthesized by SPPS] | 0.96 x-fold of basal | 0.93 x-fold of basal | 2.48 x-fold of basal | 8.55 x-fold of basal | 1.04 x-fold of basal | 1.27 x-fold of basal | – | – | – | –
2 | APKPKFIRF-NH2 [FLP-5-1, C. elegans FMRFamide-like peptide, C-terminally amidated, synthesized by SPPS] | 0.88 x-fold of basal | 0.95 x-fold of basal | 2.00 x-fold of basal | 5.53 x-fold of basal | 1.20 x-fold of basal | 1.41 x-fold of basal | 0.88 x-fold of basal | 2.00 x-fold of basal | – | –
3 | APLEGFEDMSGFLRTIDGIQKPRF-NH2 [FLP-33, NPY-like C. elegans FLP with C-terminal RxRF/Ya signature] | – | – | – | – | 0.91 x-fold of basal | 0.88 x-fold of basal | – | – | partly insoluble | –
4 | APLEPVYPGDNATPEQMAQYAADLRRYINMLTRPRY-NH2 [PP, human pancreatic polypeptide, reference compound] | – | – | – | – | 0.99 x-fold of basal | 1.01 x-fold of basal | – | – | – | –
5 | ASPSFIRF-NH2 [FLP-4-2, C. elegans FMRFamide-like peptide, C-terminally amidated, synthesized by SPPS] | 0.92 x-fold of basal | 1.05 x-fold of basal | 4.71 x-fold of basal | 12.66 x-fold of basal | 0.85 x-fold of basal | 0.86 x-fold of basal | – | – | – | –
6 | EASAFGDIIGELKGKGLGGRMRF-NH2 [FLP-27, NPY-like C. elegans FLP with C-terminal RxRF/Ya signature] | – | – | – | – | 0.93 x-fold of basal | 0.91 x-fold of basal | – | – | partly insoluble | –
7 | GLGPRPLRF-NH2 [FLP-21] | – | – | – | – | – | – | – | – | partly insoluble | improved solubility at basic pH
8 | NPENDTPFGTMRF-NH2 [FLP-3-4, C. elegans FMRFamide-like peptide, C-terminally amidated, synthesized by SPPS] | 0.97 x-fold of basal | 0.91 x-fold of basal | 4.77 x-fold of basal | 11.46 x-fold of basal | 1.86 x-fold of basal | 0.96 x-fold of basal | – | – | partly insoluble | improved solubility at basic pH
9 | PrRP31 [reference compound] | – | – | – | – | 25.49 x-fold of basal | 25.47 x-fold of basal | – | – | – | –
10 | RGPSGPLRF-NH2 [FLP-15-2] | – | – | – | – | – | – | – | – | partly insoluble | improved solubility at basic pH
11 | SEVPGVLRF-NH2 [FLP-18-5] | – | – | – | – | – | – | – | – | partly insoluble | improved solubility at basic pH
12 | TPDINPAWYASRGIRPVGRF-NH2 [PrRP20, human prolactin-releasing peptide, 20 residues, reference compound] | – | – | – | – | 26.01 x-fold of basal | 27.38 x-fold of basal | – | – | – | –
13 | TSGPLGNLAEELNGYSRKKGGFSFRF-NH2 [QRFP26, human pyroglutamylated RFamide peptide, 26 residues, reference compound] | – | – | – | – | 1.06 x-fold of basal | 1.91 x-fold of basal | – | – | – | –
